Test results: patent publication US9562053B2, “Benzo-fused heterocyclic derivatives useful as agonists of GPR120” (Janssen Pharmaceutica NV, priority 2013, dated 2017)

Assays:
C57bl/6J Mice = test: C57bl6 mouse OGTT; type: in vivo
Experimental: Male, C57bl/6J Mice were ordered in at 8 weeks of age from Jackson Labs. Individual mice weighed anywhere in the range of 25-30 grams on study day. The mice were fasted, with removal of food occurring at 7 am on the morning of the study. Animals were moved into the room at 10:00 am, to give them time to acclimate. Glucose (insulin syringes) was drawn up either the night before or the morning of the study. Glucose was dosed (IP) at 1.5 g/kg at 7.5 ml/kg (20% glucose straight TEKNOVA, 250 ml sterile bottle w/catalogue number G0525). Test compounds were kept spinning and were only drawn into the syringes prior to study commencement. Animals were bled via tail snip to determine basal glucose levels prior to dosing of treatments. An Ascensia BREEZE Blood Glucose Monitoring System by Bayer (using unique 10-test disks) was used for determining glucose levels. The bleeds started at approximately 12:45 pm and dosing started, at 1-minute intervals, immediately after. All groups were dosed 30 minutes prior to glucose administration at a dose volume of 10 ml/kg (the dose volume was calculated separately for each individual animal). Thirty minutes after the first dose animals were bled again for a second baseline, or T=0, and immediately dosed with glucose via an i.p. injection. The exact dose volume for glucose was also calculated separately for each individual animal. Glucose measurements were taken at −30 min prior to compound dose, at t=0 (immediately prior to glucose dose), and at 15, 30, 45, 60, 90 min post glucose dose.
Glucose values were entered into an Excel sheet and graphed in GraphPad Prism. The following were calculated from Prism: Change from −30 to 0 BSLN Glucose, Raw Glucose AUC −30 to 90 min, Delta Glucose AUC −30 to 90 min, Raw Glucose AUC 0 to 90 min, Delta Glucose AUC 0 to 90 min.
The assay design is the same as that described above for the C57bl6 mouse IPGTT. The difference is that glucose was dosed PO at 3 g/kg, 7.5 ml/kg of 40% glucose.

[1] = target: T1, long form of human GPR120 (Homo sapiens, UniProt Q5NUL3); test: Human GPR120 DiscoveRx PathHunter Beta-Arrestin Assay, Procedure β-arrestin A (3000 cells per well); type: cell-based; conditions: read-out: GPR120 B-arrestin A EC50
T1 construct: host or cells: PathHunter CHO-K1 GPR120 β-Arrestin Cell Line
T1 sequence (Q5NUL3 1-377 isoform Q5NUL3-1): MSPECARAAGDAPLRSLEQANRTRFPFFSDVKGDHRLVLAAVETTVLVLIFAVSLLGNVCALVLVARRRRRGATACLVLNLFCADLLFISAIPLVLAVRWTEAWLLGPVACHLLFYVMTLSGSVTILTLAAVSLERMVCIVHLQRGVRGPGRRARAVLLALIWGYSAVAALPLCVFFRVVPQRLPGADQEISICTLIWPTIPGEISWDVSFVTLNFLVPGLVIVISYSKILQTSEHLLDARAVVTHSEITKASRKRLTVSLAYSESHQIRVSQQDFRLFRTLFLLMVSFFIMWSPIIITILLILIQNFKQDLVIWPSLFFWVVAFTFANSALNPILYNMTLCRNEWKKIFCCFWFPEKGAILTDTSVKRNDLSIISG
From the text: (§1) The binding of an agonist (medium/long chain fatty acids or small molecule agonists) to the G-protein-coupled receptor GPR120 activates phospholipase C, leading to release of intracellular Ca^+2 through the generation of inositol 1,4,5-trisphosphate (InsP3 or IP3). GPR120 activation can also trigger intracellular signaling via recruitment of β-Arrestin. In the present method, agonist-induced activation of the human GPR120 receptor is monitored through the use of PathHunter CHO-K1 GPR120 β-Arrestin Cell Line engineered by DiscoveRx, as detailed below. The cell lines are designed to co-express both the ProLink/Enzyme Donor (PK)-tagged GPCR and the Enzyme Activator (EA)-tagged β-Arrestin fusion proteins. Upon GPR120 receptor stimulation/activation, the EA-tagged β-Arrestin portion is translocated to the tagged receptor, where the two enzyme fragments are brought within close proximity. Under these conditions, these fragments can interact and form an active Beta-gal enzyme complex through Enzyme Fragment Complementation (EFC). This active Beta-gal complex can enzymatically hydrolyse the substrate to produce a detectable light signal; therefore, activation as a function of agonist concentration can be expressed as an EC50 value to determine relative compound activities. This in vitro assay therefore serves to assess compound agonist activity of the GPR120.
In Procedure β-arrestin A, the cell used were PathHunter CHO-K1 GPR120 β-Arrestin Cell Line, expressing the long form of human GPR120 (Genbank accession number NM_181745), with 3000 cells per well.
(§2) The selected CHO-K1 GPR120 β-Arrestin cells were cultured in Ham's F12 media supplemented with 10% fetal bovine serum (FBS), 1% Glutamine, 1×p/s, 800 μg/ml G418 and 300 μg/ml Hygromycin B (for selection). Cell stocks were maintained and grown in a sub-confluent state using standard cell culture procedures. The day before the experiment, the cells were harvested with non-enzymatic cell dissociation buffer and re-suspended in complete growth media at the desired concentration. A Corning 384-plate was then seeded with the proper number of cells in a volume of 25 μL, per well. The seeded plates were incubated overnight at 37° C.
(§3) On the day of the experiment, the Assay Buffer containing (a) HBSS with Ca^++ and Mg^++, (b) 20 mM HEPES, and (c) 0.1% BSA stabilizer (pH 7.4) was prepared. The growth medium was gently removed from the cell plates and 20 μL of Assay Buffer added to each well. The plate was then incubated at 37° C. for 60 mins. Test compounds were serially diluted in Assay Buffer to desired concentrations (more particularly, to one or more of the following μM concentrations: 25 μM, 12.5 μM, 6.25 μM, 3.125 μM, 1.562 μM, 0.781 μM, 0.391 μM, 0.195 μM, 0.098 μM, 0.049 μM, 0.024 μM, 0.012 μM). Five μl of compound dilution was then added to each well and the plate incubated at 37° C. for 90 mins. The detection reagents were prepared according to the manufacture's instruction. Twelve μL of the detection reagents were added to each well and the plate incubated at room temperature for 60 mins.
(§4) The plates were read on an EnVision instrument, using Protocol name: Luminescence, Plate type: 384 Costar, Measurement height: 3 mm, Measurement time: 1 s, Aperture: 384 Plate aperture. The % activity relative to the positive control was calculated using the following equation:
(§5) The % Activity values were plotted versus the concentration of test compound and fitted to a sigmoidal dose-response curve with a Hill slope=1 (fixed value) using nonlinear regression with GraphPad Prism 5.0 to calculate the EC50 values. The Fitting Equation was: Y=Bottom+(Top−Bottom)/(1+10^((LogEC50−X)*HillSlope)), where X is the log of the concentration and Y is the response.

Human GPR120 short form = target: T2, Human GPR120 short form (Homo sapiens, UniProt Q5NUL3); test: Human GPR120 in Calcium Flux Assay, Procedure Calcium B (4200 cells/well); type: cell-based
T2 construct: expressed in transfected cells
T2 sequence (Q5NUL3 1-361): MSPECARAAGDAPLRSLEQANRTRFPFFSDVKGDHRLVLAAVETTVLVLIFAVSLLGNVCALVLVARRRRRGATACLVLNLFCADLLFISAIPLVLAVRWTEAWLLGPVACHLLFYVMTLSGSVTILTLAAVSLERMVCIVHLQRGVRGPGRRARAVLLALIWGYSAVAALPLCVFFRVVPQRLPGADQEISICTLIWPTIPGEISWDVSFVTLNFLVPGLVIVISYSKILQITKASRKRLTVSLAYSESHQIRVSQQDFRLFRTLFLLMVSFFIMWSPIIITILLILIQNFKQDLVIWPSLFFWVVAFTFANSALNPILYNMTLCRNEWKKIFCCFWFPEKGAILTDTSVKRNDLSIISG
From the text: This in vitro assay serves to assess test compound agonist activity against the short splice variant (SVS with Accession number NM_001195755.1 confirmed by sequencing data) of the GPR120 receptor. The Human Short splice variant #2 (NM_001195755.1) is missing an in-frame coding exon compared to variant 1 (the Human Long splice variant NM_181745.3), resulting in a shorter isoform (GPR120-S) lacking a 16 aa protein segment compared to isoform GPR120-L. The assay platform utilizes HEK-293 cells stably transfected to express the Human GPR120 short form. These cells are first loaded with the Ca^+2 sensitive dye, Fluo-4 NW. Upon stimulation, intracellular released Ca^+2 can bind to the dye and alter its fluorescence intensity. This increase in fluorescence signal, and thus the flux in intracellular [Ca^+2], is detected and quantitated by fluorescence imaging using a FLIPR reader. The effect of the agonist is measured as a function of concentration and used to calculate an EC50 based upon a response curve.
In this procedure 4200 cells/well were employed.
A Human GPR120 clone (Genbank accession number NM_001195755.1) was placed into the pcDNA3.1 mammalian expression vector carrying the neomycin resistance gene. A stable mammalian cell was generated by placing the above clone into a HEK293 background. Clonal cells responding to long chain fatty acids had expression levels of GPR120 confirmed by RT-qPCR. Human HEK-GPR120 cells were cultured in Dulbecco's Modified Eagle's Medium (DMEM)/F12 medium supplemented with 10% fetal bovine serum (FBS), 1% L-Glutamine and 1% penicillin/streptomycin and 0.5 mg/ml G-418. Cells were split 2 times a week to keep the cells in the log-phase growth.
In preparation for the assay, HEK cells stably transfected with Human GPR120 (2.5K cells per well in 25 uL growth medium) were seeded into 384-well plates and then incubated overnight (37° C., 5% CO2). The next day, the media was changed to 20 μl assay buffer and the cell starved for 1 h at 37° C. The dye loading solution (2× dye) was prepared using 10 ml assay buffer, 100 μl of 250 mM probenecid, 1 bottle of Component A, and 20 μl of dye in DMSO. Twenty μl of the 2× dye loading buffer was then added to each well. The plates were incubated at 37° C. for 30 min, then at room temperature for an additional 15 minutes, before performing the assay on FLIPR.
Test compounds were prepared in assay buffer (2 μl of test compound+198 μl assay buffer, final DMSO in assay plate is 0.2%) at the desired concentration, more particularly at 100 μM, 50 μM, 25 μM, 12.5 μM, 6.25 μM, 3.125 μM, 1.562 μM, 0.781 μM, 0.391 μM, 0.195 μM, 0.098 μM, 0.049 μM, 0.024 μM and 0.012 μM.
The assay was performed on a FLIPR plate reader using the following parameters. Baseline was read for 10 seconds at 1 sec intervals. The program was set to transfer 10 μL of ligand from compound plate to cell plate after baseline reading. Aspiration was executed at: 10 μl/sec speed, 4.6 μl height; Dispensing was executed at: 30 μl/sec speed, 45 μl height. After compound addition, each well was read for 300 sec, with measurements collected at 1 sec intervals.
The kinetic data from the FLIPR was based upon a 5 minute window for data collection. The fluorescence of each sample well was used for individual calculations of a normalized RFU value, which was defined as maximum response minus the minimum response. The normalized fluorescence reading (RFU) was calculated as follows: RFU=Fmax−Fmin
The data were fitted to a sigmoidal dose-response curve with a variable Hill slope (<2) using nonlinear regression with GraphPad Prism 5.0 to calculate the EC50 values. The Fitting Equation was: Y=Bottom+(Top−Bottom)/(1+10^((LogEC50−X)*HillSlope)), where X is the log of the concentration and Y is the response.

[2] = target: T3, short form of the GPR120 receptor (Homo sapiens, UniProt Q5NUL3); test: Human GPR120 DiscoveRx PathHunter Beta-Arrestin Assay, Procedure β-arrestin B (5000 cells/well); type: cell-based
T3 construct: host or cells: PathHunter CHO-K1 GPR120S β-Arrestin Cell Line
T3 sequence (Q5NUL3 1-361): T2 sequence (Q5NUL3 1-361)
From the text: as §1
In Procedure β-arrestin B the cells used were PathHunter CHO-K1 GPR120S β-Arrestin Cell Line, expressing the short form of the GPR120 receptor (Accession #NM_181745), with 5000 cells/well.
as §2, §3, §4, §5

| EC50 [1] [nM] | EC50 (Human GPR120 short form) [nM] | EC50 [2] [nM] | Compound | Dose Responses C57 OGTT (C57bl/6J Mice; 3 mg/kg) [%] | Dose Responses C57 OGTT (C57bl/6J Mice; 10 mg/kg) [%] |
| --- | --- | --- | --- | --- | --- |
| 302 |  |  | CCCc1cc2cc(F)cc(COc3ccc(CCC(=O)O)c(C)c3C)c2o1 [Compound 13, 3-{4-[(5-Fluoro-2-propyl-1-benzofuran-7-yl)methoxy]-2,3-dimethylphenyl}propanoic acid] | −16 | −16 |
|  | 184 | 882 | Cc1c(CCC(=O)O)ccc(OCc2cc(Cl)cc3sc(C(C)C)nc23)c1C [Compound 106, 3-(4-{[6-chloro-2-(1-methylethyl)-1,3-benzothiazol-4-yl]methoxy}-2,3-dimethylphenyl)propanoic acid] |  |  |
|  | 1010 | 3920 | Cc1c(CCC(=O)O)ccc(OCc2cc(F)cc3sc(C(C)(C)C)nc23)c1C [Compound 107, 3-{4-[(2-tert-butyl-6-fluoro-1,3-benzothiazol-4-yl)methoxy]-2,3-dimethylphenyl}propanoic acid] |  |  |
|  | 2740 |  | Cc1cc2cc(Cl)c(CCCS(C)(=O)=O)c(COc3ccc(CCC(=O)O)c(C)c3C)c2o1 [Compound 108, 3-[4-({5-Chloro-2-methyl-6-[3-(methylsulfonyl)propyl]-1-benzofuran-7-yl}methoxy)-2,3-dimethylphenyl]propanoic acid] |  |  |
|  | 38 | 191 | CCc1nc2c(COc3ccc(CCC(=O)O)c(C)c3C)cc(Cl)cc2s1 [Compound 109, 3-{4-[(6-Chloro-2-ethyl-1,3-benzothiazol-4-yl)methoxy]-2,3-dimethylphenyl}propanoic acid] |  |  |
|  | 949 | 3310 | Cc1c(CCC(=O)O)ccc(OCc2cc(Cl)cc3sc(CC(C)C)nc23)c1C [Compound 110, 3-(4-{[6-Chloro-2-(2-methylpropyl)-1,3-benzothiazol-4-yl]methoxy}-2,3-dimethylphenyl)propanoic acid] |  |  |
|  | 107 | 299 | Cc1c(CCC(=O)O)ccc(OCc2cc(F)cc3sc(C(C)C)nc23)c1C [Compound 111, 3-(4-{[6-Fluoro-2-(1-methylethyl)-1,3-benzothiazol-4-yl]methoxy}-2,3-dimethylphenyl)propanoic acid] |  |  |
